Test [1] deals with T1, photosensory core of AsphyA (66-610) (Avena sativa, UniProt P06593).
T1 construct: the PAS-GAF-PHY photosensory core (66–610aa) were also cloned into pPIC3.5K; made in house; host or cells: Pichia pastoris GS115
T1 sequence (P06593 66-610): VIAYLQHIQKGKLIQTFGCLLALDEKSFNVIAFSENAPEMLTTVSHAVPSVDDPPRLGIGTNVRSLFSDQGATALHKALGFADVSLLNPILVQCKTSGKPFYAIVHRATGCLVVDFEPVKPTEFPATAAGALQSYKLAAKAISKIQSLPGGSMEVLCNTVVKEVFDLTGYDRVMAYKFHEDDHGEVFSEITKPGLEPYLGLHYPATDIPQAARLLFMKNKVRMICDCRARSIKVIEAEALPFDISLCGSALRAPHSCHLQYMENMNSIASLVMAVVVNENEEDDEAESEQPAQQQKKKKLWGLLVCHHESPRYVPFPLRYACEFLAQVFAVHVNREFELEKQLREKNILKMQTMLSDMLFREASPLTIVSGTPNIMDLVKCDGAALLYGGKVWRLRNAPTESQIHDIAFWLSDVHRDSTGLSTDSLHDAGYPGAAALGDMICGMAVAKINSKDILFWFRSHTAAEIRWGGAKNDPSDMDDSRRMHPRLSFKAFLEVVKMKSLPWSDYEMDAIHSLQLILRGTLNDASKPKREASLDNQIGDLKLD
Description: Photoaffinity labelling of the photosensory core with 8-azido-ATP and competition by unlabeled ATP. It counts as binding. As to conditions: 10 μM 8-azido-ATP. How it is done:
To investigate ATP-binding to AsphyA proteins, photoaffinity labelling experiments were carried out using 8-N3-ATP-biotin-long chain-hydrazone (8-azido-ATP), which were purchased from Affinity Labeling Technologies, Inc. Purified phytochrome proteins (1.0 μg) were pre-incubated for 30 min on ice in 50 μl of photoaffinity labelling buffer (20 mM Tris-HCl, pH 7.0, 2 mM EDTA, 2 mM MgCl2 and 150 μM ATP), and then 8-azido-ATP was applied with indicated concentrations. After incubation for 5 more min on ice, ultraviolet light at 254 nm was then irradiated for 90 s using a hand-held ultraviolet lamp at 4 cm from the surface of the reaction mixtures. Immediately after photoaffinity labelling, reactions were stopped by adding SDS sample buffer, and the 8-azido-ATP-labelled phytochromes were detected with 1:2,000 avidin-HRP (A-115, Boston Biochem). After development, the images were scanned and opened by ImageJ, a Java-based image-processing software, to quantitate the photoaffinity labelling with azido-ATP analogues. Background signal was subtracted before normalization. […]
Supplementary Figure 11. […] 8-azido-ATP labeled proteins were then detected using avidin-HRP. […] The band intensities were quantified using ImageJ software, and the percentages of 8-azido-ATP labeling were normalized to the 66-610 protein signals. […]

In test [2] the target is T2, PAS-GAF-PHY photosensory core of AsphyA (66-610aa) (Avena sativa, UniProt P06593 66-610, phycocyanobilin chromophore assembled (chromophore-binding site C322)).
T2 construct: Avena sativa phytochrome A, residues 66-610 (PAS-GAF-PHY photosensory core); also called the photosensory core; source: phycocyanobilin added in vitro
T2 sequence (looked up): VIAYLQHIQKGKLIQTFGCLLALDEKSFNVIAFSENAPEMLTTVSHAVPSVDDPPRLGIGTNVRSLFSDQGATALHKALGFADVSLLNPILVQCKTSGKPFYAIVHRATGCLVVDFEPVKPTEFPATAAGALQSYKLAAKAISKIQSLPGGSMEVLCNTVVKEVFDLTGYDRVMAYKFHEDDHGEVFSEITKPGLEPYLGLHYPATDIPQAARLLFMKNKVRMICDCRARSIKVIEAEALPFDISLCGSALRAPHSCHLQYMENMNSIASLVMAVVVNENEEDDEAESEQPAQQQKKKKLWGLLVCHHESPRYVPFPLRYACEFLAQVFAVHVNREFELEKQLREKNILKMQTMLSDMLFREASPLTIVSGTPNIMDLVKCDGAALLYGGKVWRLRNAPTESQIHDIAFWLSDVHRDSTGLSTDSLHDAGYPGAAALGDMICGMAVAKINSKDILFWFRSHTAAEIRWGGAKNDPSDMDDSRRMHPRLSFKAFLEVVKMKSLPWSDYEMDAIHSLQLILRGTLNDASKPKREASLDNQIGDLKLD
Put plainly: pull-down; GST/strep-fused interacting protein (1.0 μg) held on glutathione resin, phytochrome (1.0 μg) in solution, Pr and Pfr forms both tested; 60 min at 4 °C in pull-down buffer (100 mM Tris-HCl pH 7.8, 1 mM EDTA, 150 mM NaCl, 100 μg/ml BSA); western blot with oat22 and anti-GST. As to conditions: both partners purified. In general terms: Immunoblotting shows a protein as a band on a membrane.

For the molecule “8-N3-ATP-biotin-long chain-hydrazone [8-azido-ATP]”, the “photoaffinity labelling of the photosensory core” value in test [1] (UV 90 s, Pr and Pfr forms) is “labelled”.

For the molecule `Nc1ncnc2c1ncn2[C@@H]1O[C@H](COP(=O)(O)OP(=O)(O)OP(=O)(O)O)[C@@H](O)[C@H]1O` [ATP], the “concentration of unlabeled ATP that inhibited 8-azido-ATP photoaffinity labeling” value in test [1] (unlabeled ATP 0-30 mM) is “approximately 7.5 mM”.

B1: GST/strep-fused PIF3 (natural protein, UniProt O80536 1-524, looked up)
chain: MPLFELFRLTKAKLESAQDRNPSPPVDEVVELVWENGQISTQSQSSRSRNIPPPQANSSRAREIGNGSKTTMVDEIPMSVPSLMTGLSQDDDFVPWLNHHPSLDGYCSDFLRDVSSPVTVNEQESDMAVNQTAFPLFQRRKDGNESAPAASSSQYNGFQSHSLYGSDRARDLPSQQTNPDRFTQTQEPLITSNKPSLVNFSHFLRPATFAKTTNNNLHDTKEKSPQSPPNVFQTRVLGAKDSEDKVLNESVASATPKDNQKACLISEDSCRKDQESEKAVVCSSVGSGNSLDGPSESPSLSLKRKHSNIQDIDCHSEDVEEESGDGRKEAGPSRTGLGSKRSRSAEVHNLSERRRRDRINEKMRALQELIPNCNKVDKASMLDEAIEYLKSLQLQVQIMSMASGYYLPPAVMFPPGMGHYPAAAAAMAMGMGMPYAMGLPDLSRGGSSVNHGPQFQVSGMQQQPVAMGIPRVSGGGIFAGSSTIGNGSTRDLSGSKDQTTTNNNSNLKPIKRKQGSSDQFCGSS
notes: Probably Arabidopsis PIF3, as PIF1 and PIF4 are called Arabidopsis; not shown: GST, N-terminal, kept
Regarding B1, the binding result in test [2] was “binds”.

The values above are taken from publication PMC4869175, “Evidence that phytochrome functions as a protein kinase in plant light signalling” (Nature Communications, 2016).
